Assay results taken from patent US8921368B2, “Pyrrolopyridazine JAK3 inhibitors and their use for the treatment of inflammatory and autoimmune diseases” (Bristol-Myers Squibb Company, priority 2011, dated 2014).

How the values were obtained:
[1] = target: JAK3 (Homo sapiens (Human), UniProt P52333); test: JAK3 Kinase Assay (Caliper / Filter protocols); type: biochemical; conditions: JAK3 kinase inhibition; ATP 8 μM; read-out: LLE_JAK3_FB (IC50)
Method: JAK3 Kinase Assay Protocol (Caliper)
The assay reactions were performed in U-bottom 384-well plates. […] The reaction was initiated by the combination of GST-JAK3 enzyme with substrates and test compounds. The reactions were incubated at room temperature for 3 hours and terminated by adding 60 μl of 35 mM EDTA to each sample. […] Compounds were dissolved at 10 mM in dimethylsulfoxide (DMSO) and evaluated at eleven concentrations. IC50 values were derived by non-linear regression analysis.
JAK3 Kinase Assay Protocol (Filter)
Kinase reactions consisted of 5 ng of JAK3 enzyme, 30 uM CSKtide substrate, 0.2 μCi ^33P γ-ATP, 8 μM ATP in 30 μl kinase buffer (50 mM Hepes, pH 8.0, 10 mM MgCl2, 1 mM EGTA, 2 mM DTT). Reactions were incubated for 30 minutes at room temperature and stopped by the addition of cold trichloroacetic acid (TCA) to a final concentration of 15%. TCA precipitates were collected onto 384 well phosphocellulose filters (Millipore) using a Platemate to transfer the reaction mixture, washed on an EMBLA plate washer and the filters were quantitated using a TopCount 384-well liquid scintillation counter. […] Compounds were dissolved at 10 mM in dimethylsulfoxide (DMSO) and evaluated at six concentrations, each in triplicate. The final concentration of DMSO in the assay equaled 2%. IC50 values were derived by non-linear regression analysis.

[2] = target: JAK1 (Homo sapiens (Human), UniProt P23458); test: JAK1 Kinase Assay Protocol; type: biochemical; conditions: GST-JAK1; ATP 100 μM; Caliper LabChip; read-out: LLE_JAK1 (IC50)
Method: JAK1 Kinase Assay Protocol
The assay reactions were performed in U-bottom 384-well plates. The final assay volume was 30 μl prepared from 15 μl additions of enzyme and substrates (fluoresceinated peptide and ATP) and test compounds in assay buffer (20 mM HEPES pH 7.4, 10 mM MgCl2, 25 mM beta-glycerol phosphate, 0.015% Brij35 and 4 mM DTT). The reaction was initiated by the combination of GST-JAK1 enzyme with substrates and test compounds. The reactions were incubated at room temperature for 3 hours and terminated by adding 60 μl of 35 mM EDTA to each sample. […] The final concentration of reagents in the assays was: ATP, 100 μM; fluoresceinated peptide, 1.5 μM; GST-JAK1, 12.5 nM; and DMSO, 1.6%. […] Compounds were dissolved at 10 mM in dimethylsulfoxide (DMSO) and evaluated at eleven concentrations. IC50 values were derived by non-linear regression analysis.

JAK3, sequence (P52333 whole entry): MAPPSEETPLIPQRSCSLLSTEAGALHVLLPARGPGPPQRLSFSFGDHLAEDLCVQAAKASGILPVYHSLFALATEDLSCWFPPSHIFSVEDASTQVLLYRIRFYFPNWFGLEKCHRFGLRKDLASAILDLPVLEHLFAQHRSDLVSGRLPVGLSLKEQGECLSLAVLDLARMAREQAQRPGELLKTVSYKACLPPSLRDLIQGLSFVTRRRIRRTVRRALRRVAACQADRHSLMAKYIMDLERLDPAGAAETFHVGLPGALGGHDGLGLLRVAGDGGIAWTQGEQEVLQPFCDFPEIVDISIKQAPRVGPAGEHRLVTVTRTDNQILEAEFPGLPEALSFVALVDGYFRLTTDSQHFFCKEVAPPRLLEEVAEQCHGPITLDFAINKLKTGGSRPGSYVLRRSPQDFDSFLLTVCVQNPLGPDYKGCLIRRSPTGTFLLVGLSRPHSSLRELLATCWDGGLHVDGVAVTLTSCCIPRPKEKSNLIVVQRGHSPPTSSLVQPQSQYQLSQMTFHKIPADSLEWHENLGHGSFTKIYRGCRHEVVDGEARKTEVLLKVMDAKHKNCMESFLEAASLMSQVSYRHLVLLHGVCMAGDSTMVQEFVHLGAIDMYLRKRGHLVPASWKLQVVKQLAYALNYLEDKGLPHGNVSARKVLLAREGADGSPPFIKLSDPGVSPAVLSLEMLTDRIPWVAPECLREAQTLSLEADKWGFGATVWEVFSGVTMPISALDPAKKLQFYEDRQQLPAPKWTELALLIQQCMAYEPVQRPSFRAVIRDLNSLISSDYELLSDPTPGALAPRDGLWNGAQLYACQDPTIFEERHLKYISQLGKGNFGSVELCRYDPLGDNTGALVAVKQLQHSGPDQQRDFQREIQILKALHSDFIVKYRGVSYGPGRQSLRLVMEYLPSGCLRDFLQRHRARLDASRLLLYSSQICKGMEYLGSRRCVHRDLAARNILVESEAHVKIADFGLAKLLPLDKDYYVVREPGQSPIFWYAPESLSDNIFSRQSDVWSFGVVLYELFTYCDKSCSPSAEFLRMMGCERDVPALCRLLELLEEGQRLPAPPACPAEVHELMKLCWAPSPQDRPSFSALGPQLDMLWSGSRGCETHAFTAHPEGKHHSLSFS
JAK1, sequence (P23458 whole entry): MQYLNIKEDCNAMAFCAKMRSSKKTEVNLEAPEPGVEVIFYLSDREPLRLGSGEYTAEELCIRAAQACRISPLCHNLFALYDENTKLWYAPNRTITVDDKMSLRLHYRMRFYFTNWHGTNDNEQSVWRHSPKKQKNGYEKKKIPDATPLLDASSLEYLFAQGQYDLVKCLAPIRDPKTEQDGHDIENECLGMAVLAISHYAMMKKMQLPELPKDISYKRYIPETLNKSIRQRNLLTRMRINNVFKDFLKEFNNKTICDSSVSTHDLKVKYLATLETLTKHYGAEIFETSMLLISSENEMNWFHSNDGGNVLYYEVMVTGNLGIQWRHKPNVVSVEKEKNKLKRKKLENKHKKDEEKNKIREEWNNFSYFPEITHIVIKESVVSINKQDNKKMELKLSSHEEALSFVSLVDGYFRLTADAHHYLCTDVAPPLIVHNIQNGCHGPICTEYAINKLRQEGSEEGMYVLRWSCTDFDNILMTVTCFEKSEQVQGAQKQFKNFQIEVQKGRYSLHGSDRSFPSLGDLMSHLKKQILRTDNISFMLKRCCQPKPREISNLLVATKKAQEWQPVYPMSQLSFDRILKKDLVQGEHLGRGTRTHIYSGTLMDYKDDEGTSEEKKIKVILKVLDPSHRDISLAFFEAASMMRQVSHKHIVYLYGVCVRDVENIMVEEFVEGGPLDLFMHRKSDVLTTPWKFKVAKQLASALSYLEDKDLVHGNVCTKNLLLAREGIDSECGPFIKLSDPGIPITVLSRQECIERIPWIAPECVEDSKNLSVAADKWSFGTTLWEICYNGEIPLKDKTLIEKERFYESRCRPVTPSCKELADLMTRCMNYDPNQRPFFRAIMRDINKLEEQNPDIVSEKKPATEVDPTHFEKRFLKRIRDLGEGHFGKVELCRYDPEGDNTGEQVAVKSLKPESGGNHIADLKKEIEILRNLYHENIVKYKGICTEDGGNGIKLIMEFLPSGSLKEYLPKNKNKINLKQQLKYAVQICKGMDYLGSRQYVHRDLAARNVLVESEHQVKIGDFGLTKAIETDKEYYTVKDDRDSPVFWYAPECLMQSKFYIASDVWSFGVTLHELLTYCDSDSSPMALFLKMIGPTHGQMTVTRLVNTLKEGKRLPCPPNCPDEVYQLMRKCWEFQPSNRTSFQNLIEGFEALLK

Structure (SMILES)	IC50 [1]	IC50 [2]
CC1(C)[C@H](Nc2c(C(N)=O)cnn3cc(NS(C)(=O)=O)cc23)CC[C@@]1(C)O (racemic) [Example 3]	6 nM	45.8 nM
CC1(C)[C@H](Nc2c(C(N)=O)cnn3cc(N4CCOCC4=O)cc23)CC[C@]1(C)N [Example 312, 4-(((1R,3S)-3-amino-2,2,3-trimethylcyclopentyl)amino)-6-(3-oxo-4-morpholinyl)pyrrolo[1,2-b]pyridazine-3-carboxamide]	44.2 nM	69.4 nM
Cn1nccc1-c1cc2c(N[C@@H]3CC[C@](C)(O)C3(C)C)c(C(N)=O)cnn2c1 (racemic) [Example 148]	25.2 nM	46.4 nM
C[C@]1(F)CCC[C@H]1Nc1c(C(N)=O)cnn2cc(N3CCOCC3=O)cc12 (racemic) [Example 318]	7.1 nM	13.4 nM
CC1(C)[C@H](Nc2c(C(N)=O)cnn3cc(NS(=O)(=O)c4ccc(Cl)cc4)cc23)CC[C@@]1(C)O (racemic) [Example 23]	23.4 nM	258 nM
CC1(C)[C@H](Nc2c(C(N)=O)cnn3cc(N4CCCC4=O)cc23)CC[C@]1(C)N [Example 328]	1.7 nM	20.2 nM
C[C@]1(F)CCC[C@H]1Nc1c(C(N)=O)cnn2cc(N3CCCC3=O)cc12 (racemic) [Example 159]	0.5 nM	3.8 nM
C[C@]1(F)CCC[C@H]1Nc1c(C(N)=O)cnn2cc(N3CCOC3=O)cc12 [Example 317]	6.8 nM	13.6 nM
CC(=O)Nc1cc2c(N[C@@H]3CC[C@@](C)(O)C3(C)C)c(C(N)=O)cnn2c1 (racemic) [Example 7]	0.9 nM	8.2 nM
CCS(=O)(=O)Nc1cc2c(N[C@@H]3CC[C@@](C)(O)C3(C)C)c(C(N)=O)cnn2c1 (racemic) [Example 25]	8.1 nM	83.9 nM

The remaining lines, values ahead:

IC50 [1]	IC50 [2]	Structure (SMILES)
0.5 nM	0.7 nM	CC1(C)[C@H](Nc2c(C(N)=O)cnn3cc(-c4cccnc4)cc23)CC[C@]1(C)N [Example 192, 4-(((1R,3S)-3-amino-2,2,3-trimethylcyclopentyl)amino)-6-(3-pyridinyl) pyrrolo[1,2-b]pyridazine-3-carboxamide]
5.6 nM	10.9 nM	Cn1nccc1-c1cc2c(N[C@@H]3C[C@@H](O)[C@@H](O)C3(C)C)c(C(N)=O)cnn2c1 (racemic) [Example 142]
0.2 nM	0.1 nM	CC1(C)[C@H](Nc2c(C(N)=O)cnn3cc(-c4ccccc4)cc23)CC[C@@]1(C)O [Example 293, 4-(((1R,3R)-3-hydroxy-2,2,3-trimethylcyclopentyl)amino)-6-phenylpyrrolo[1,2-b]pyridazine-3-carboxamide]
1.9 nM	2.2 nM	CC1(C)[C@H](Nc2c(C(N)=O)cnn3cc(-c4ccc(F)nc4)cc23)CC[C@]1(C)C(N)=O [Example 339, 4-(((1R,3S)-3-carbamoyl-2,2,3-trimethylcyclopentyl)amino)-6-(6-fluoropyridin-3-yl)pyrrolo[1,2-b]pyridazine-3-carboxamide]
0.4 nM	1.4 nM	CC1(C)[C@H](Nc2c(C(N)=O)cnn3cc(-c4ccccc4)cc23)CC[C@]1(C)C(N)=O [Example 337, 4-((1R,3S)-3-carbamoyl-2,2,3-trimethylcyclopentylamino)-6-phenylpyrrolo[1,2-b]pyridazine-3-carboxamide]
0.3 nM	1.3 nM	Cc1cccc(-c2cc3c(N[C@@H]4CCC[C@]4(C)F)c(C(N)=O)cnn3c2)c1 (racemic) [Example 72]
6.1 nM	1.3 nM	Cc1ccncc1-c1cc2c(N[C@@H]3CC[C@](C)(N)C3(C)C)c(C(N)=O)cnn2c1 [Example 195, 4-(((1R,3S)-3-amino-2,2,3-trimethylcyclopentyl)amino)-6-(4-methyl-3-pyridinyl)pyrrolo[1,2-b] pyridazine-3-carboxamide]
13.8 nM	5.4 nM	CC1(C)[C@H](Nc2c(C(N)=O)cnn3cc(-c4cccc5ncccc45)cc23)CC[C@]1(C)N [Example 272, 4-(((1R,3S)-3-amino-2,2,3-trimethylcyclopentyl)amino)-6-(5-quinolinyl)pyrrolo[1,2-b]pyridazine-3-carboxamide]
1 nM	2.6 nM	CC1(C)[C@H](Nc2c(C(N)=O)cnn3cc(-c4ccccc4)cc23)CC[C@]1(C)NS(C)(=O)=O [Example 129]
7.3 nM	4.3 nM	NC(=O)c1cnn2cc(-c3ccc4scnc4c3)cc2c1NC12CC3CC(O)(CC(O)(C3)C1)C2 [Example 299, 6-(1,3-benzothiazol-5-yl)-4-((3,5-dihydroxyadamantan-1-yl)amino)pyrrolo [1,2-b]pyridazine-3-carboxamide]
33.6 nM	72.4 nM	C[C@]1(O)CC[C@@H](Nc2c(C(N)=O)cnn3cc(-c4ccccc4C(N)=O)cc23)CC1 [Example 166, 6-(2-carbamoylphenyl)-4-((cis-4-hydroxy-4-methylcyclohexyl)amino)pyrrolo[1,2-b]pyridazine-3-carboxamide]
6 nM	2.7 nM	CC1(C)[C@H](Nc2c(C(N)=O)cnn3cc(-c4ccccc4C(N)=O)cc23)CC[C@]1(C)N [Example 255, 4-(((1R,3S)-3-amino-2,2,3-trimethylcyclopentyl)amino)-6-(2-carbamoylphenyl)pyrrolo [1,2-b]pyridazine-3-carboxamide]
